According to patent US12433870B2, “Supramolecular photoprotection of a photosensitizer” (Northwestern University, priority 2019, dated 2025):

Experiments:
[1] = Solubility in water / PBS buffer; format: physicochemical
[2] = Detection of singlet oxygen (ADPA chemical method, methylene blue reference); format: physicochemical; conditions: 20 μM, 630 nm, 50 mW, 20 min
Experimental: Singlet oxygen (^1O2) quantum-yield measurements were conducted by a chemical method. The disodium salt of 9.10-anthracenedipropionic acid (ADPA) was used as singlet oxygen detection reagent with methylene blue used as a reference (Φt=0.53). In this experiment, ADPA (0.1 μmol) was added to the H2O solution of ExBox^4+⊃DPP (20 μM) with a laser irradiation (630 nm, 50 mW) for 20 min, followed by quantification of ^1O2 by the absorbance intensity change (UV-3600 Shimadzu spectrophotometer) at 380 nm of ADPA. The calculation of ^1O2 quantum yield is based on the equality ΦΔ=(ΔAs/[…])Φr. ΔAs is the absorption change of detected photosensitizer, ΔAr is the absorption change of referenced photosensitizer and Φ^r is the quantum yield of singlet oxygen of referenced photosensitizer (methylene blue).
(§1) ADPA (0.1 μmol) was added to the H2O solution of DPPH2^+ (20 μM) with a laser irradiation (630 nm, 50 mW) for 20 min, followed by quantification of the ^1O2 by the absorbance intensity change (UV-3600 Shimadzu spectrophotometer) at 380 nm of ADPA. The calculation of the ^1O2 quantum yield is based on the equality ΦΔ=(ΔAs/ΔAr)Φr where ΔAs is the absorption change of detected photosensitizer, ΔAr is the absorption change of referenced photosensitizer and Φr is the quantum yield of singlet oxygen of referenced photosensitizer (methylene blue). Measured ^1O2 quantum yield of DPPH2^2+ is 0.38 in H2O.
as §1, with “acetone” for “H2O”, “DPP” for “DPPH2^+”, “DPP” for “DPPH2^2+”, “0.43” for “0.38”, “acetone.” for “H2O.”

A2780 cells [3] = assay: Live cell confocal microscopy, cellular uptake and co-localization; format: cell-based, human; conditions: lysosomal uptake, control experiment
Experimental: A2780 cells (1×10^5 cells/mL, 300 μL) were plated in each well of an 8-well μ-slide (ibidi cell focus) and cultured overnight. PBS solution of ExBox^4+⊃DPP was added to each well and incubated for predetermined time points. For cellular co-localization studies, cells were washed with phenol free DMEM and stained with LysoTracker green (lysosome stain, 1:1000 dilution) or MitoSpy™ Green FM (mitochondria stain, 1:2000 dilution) or NucBlue™ Live ReadyProbes™ Reagent (nuclei stain, 1 drop). For the live-dead assay, cells were incubated with PBS solution of ExBox^4+⊃DPP irradiated for 10 min at […] light intensity, incubated overnight, and stained with Calcein AM (2 μM) and Ethidium homodimer-1 (4 μM). Plated cells were imaged within a humidified chamber using a 63× oil-immersion objective on a SP5 Leica Confocal Microscope using HyD detectors and lasers.

A2780 cells [4] = assay: In vitro PDT efficacy, MTT assay after visible light irradiation; format: cell-based, human; conditions: 10 μM PBS solution, light dose 0.078 J cm^−2
Experimental: A2780 cells (human ovarian cancer cell line) and MCF-7 cells (human breast adenocarcinoma cell line) obtained from Sigma-Aldrich and American Type Culture Collection (ATCC, Rockville, MD, USA), respectively were utilized for cell culture experiments. These cells were cultured in Dulbecco's Modified Eagle's Medium (DMEM) supplemented with 10% fetal bovine serum (FBS), penicillin (100 IU/mL) and streptomycin (100 μg/mL) at 37° C. in the presence of air (95%) and CO2 (5%).
A2780 or MCF-7 cells (2×10^5 cells/mL, 100 μL) were seeded in each well of a black 96-well plate. Stock solution of ExBox^4+⊃DPP in PBS (1 mM, 10 μL) was added to each well to achieve working concentrations and incubated for 12 h. After incubation, wells were washed with PBS, added with 100 μL of DMEM and immediately irradiated with visible light using Max-303 Xenon Light Source (385-740 nm, Asahi Spectra) at different light intensities (5-50 mW) for 1 to 15 min. Following irradiation, cells were incubated overnight and then added with MTT (5 mg/mL in PBS, 10 μL). After 4 h incubation with MTT, media from each well was pipetted out, formazan crystals deposited on the plate were dissolved in 200 μL of Me2SO, and the absorbance of each well was measured using a microplate reader at 560 nm. All the samples were analyzed in quadruplicates.
The percentage cell viability was calculated using the following formula: % cell viability=(OD of treated sample/OD of untreated sample)*100.

[5] = reference photosensitizer; cited from earlier work

For C1=Cc2nc1cc1ccc([nH]1)c(-c1ccccc1)c1nc(cc3ccc([nH]3)c2-c2ccccc2)C=C1 [DPP, 5,15-diphenylporphyrin], the “solubility in H2O” value ([1]; H2O) was “insoluble”, the “solubility in water and PBS buffer” value ([1]; water and PBS buffer) was “insoluble” and the “^1O2 quantum yield” value ([2]; in acetone) was 0.43.
In the case of C1=Cc2nc1cc1ccc([nH]1)c(-c1ccccc1)c1nc(cc3ccc([nH]3)c2-c2ccccc2)C=C1 [DPPH2^2+, reference compound], the “cellular uptake compared with the complex (fluorescence intensity inside cells)” value (A2780 cells [3]) is reported as “less efficient”, the “cells killed (PDT control experiment)” value (A2780 cells [4]) is reported as roughly 90% and the “^1O2 quantum yield” value ([2]; in H2O) is reported as 0.38.
For CN(C)c1ccc2nc3ccc(=[N+](C)C)cc-3sc2c1 [methylene blue], the “^1O2 quantum yield of reference” value [5] is listed as 0.53.
